One assay has as its system DNA ligase. The conditions noted are these: cited from earlier work.
The test system of assay [1] is Taq polymerase. The conditions noted are these: cited from earlier work.
Assay [2] concerns reverse transcriptase purified from arian myeloblastosis virus. The conditions noted are these: cited from earlier work.
Assay [3] has as its system DNA ligase from mouse erythroleukemia (MEL) cells. The conditions noted are these: dilution, dialysis, or sucrose gradient centrifugation of cell-free extracts; cited from earlier work.
Assay [4] relates to DNA-cytoplasmic DNA polymerase complex. Conditions: cited from earlier work.
In assay [5] the test system is NAD-dependent DNA ligase from E. coli. The conditions noted are these: cited from earlier work.
In a further assay the test system is T4 DNA ligase. The conditions noted are these: dilution, dialysis, or sucrose gradient centrifugation of cell-free extracts; cited from earlier work.
For assay [6], the system named is virion-associated reverse transcriptase (RTase) of murine leukemia virus (MuLV). The conditions noted are these: cited from earlier work.
Assay [7] has as its system Taq polymerase. The assay is described as follows: PCR from boiled whole blood with or without transferrin. The format is biochemical. The conditions noted are these: with transferrin; without transferrin inhibited above 1 μl. The protocol: Experiment 1. Whole blood (200 μl) was boiled for 10 minutes then briefly centrifuged to precipitate the solid coagulated mass which formed. The supernatant layer was then used directly for PCR amplification (1, 2, 3, 4, or 5 μl), either with or without transferrin. […] An aliquot of 5 μl whole blood processed by Mode III gave a very intense signal, indicating the advantage of the method over the boiling method, which provided no signal at all with a 5 μl aliquot.

For assay [8] the following is noted: in the presence of an anion (such as HCO3^-); cited from earlier work.
Assay [9] concerns Taq polymerase. The assay is classed as biochemical. The protocol: (§1) Generally, PCR was carried out using 175-200 μM dNTPS (deoxyribonucleoside 5'-triphosphates) and 0.5 to 1.0 μM primers. Five units/100 μl of Taq polymerase were used. PCR reactions were overlaid with 30-100 μl light mineral oil. A typical PCR cycle for HIV amplification using a Perkin-Elmer Cetus DNA Thermal Cycler (Part No. N8010150) was: denaturation at 95° C. for 30 seconds; annealing at 55° C. for 30 seconds; and extension at 72° C. for 1 minute. PCR cycles were normally carried out in this manner for 35 cycles followed by 7 minutes at 72° C.
In some instances below, amplification of human histocompatibility (HLA) Class II genes was performed using primer pair GH26 (SEQ ID NO:2) and GH27 (SEQ ID NO:3) and human placental DNA to produce a 242-mer product (SEQ ID NO: 4). These primers and other primers are described in PCR Protocols: A Guide To Methods and Applications, Innis, M. A. et al. eds., pp. 261-271 (1990)).
Whole blood was prepared according to Mode III (see FIG. 1). Whole blood samples (100 μl) were lysed with protease K (0.5 mg/ml, 55° C. for 1 hour). The enzyme was inactivated by heating (95°-100°C., 10 minutes). Four sets of reactions were then set up involving the addition of interfering reagent to the protease lysate: 1) transferrin with 10 mM sodium bicarbonate; 2) transferrin with 20 mM sodium bicarbonate; 3) serum albumin with 10 mM sodium bicarbonate; and 4) serum albumin with no cofactor. These reaction were performed at room temperature for thirty minutes using a concentration range for transferrin and serum albumin (10, 25, 50, 75, 100, 150, 200 and 250 μg per 20 μl PCR rxn). PCR was then set up using the primer pair GH26/GH27 to produce a 242-mer product (see above). Two standard control reactions were run in separate tubes: i) a no nucleic acid target control; and 2) a positive control (human placental DNA). Four additional control lanes were run: 1) no inhibitor treatment (two lanes); 2) 10 mM sodium bicarbonate only (one lane); and 3) 50 μg transferrin only (one lane); and 4) transferrin with 10 mM sodium bicarbonate (two lanes). PCR was carried out for 35 cycles. The PCR products were thereafter electrophoresed (agarose) and visualized with ethidium bromide staining. The two above-named control reactions were electrophoresed in lanes 9 and 10 of FIG. 16A, respectively, as well as lanes 17 and 18 of FIG. 16B, respectively. In FIG. 16C, the positive control is in lane 1 and the negative control is in lane 2.
Whole blood was prepared according to Mode III (see FIG. 1). Whole blood samples (20 μl) were lysed with protease K (0.5 mg/ml, 55° C. for 1 hour). The enzyme was inactivated by heating (95°-100° C., 10 minutes). Reactions were then set up involving the addition of bovine transferrin or serum albumin with various cofactors, including bicarbonate ion, azide ion, thiocyanate ion, cyanate ion, oxalate ion, malonate ion, glycinate ion, and thioglycolate ion. These reaction were performed at room temperature for thirty minutes. PCR was then set up using the using primer pair GH26/GH27 to produce a 242-mer product (see above). PCR was carried out for 35 cycles. The PCR products were thereafter electrophoresed (agarose) and visualized with ethidium bromide staining.

The nature of assay [10]: Transferrin binding of heme. From the text:
This is lower than that expected from the molar ratio for transferrin to iron binding of 0.5. Second, there is the question of the central metal ion: the central metal iron was found not to be required for the transferrin-mediated phenomenon of the present invention.

In assay [11] the test system is Taq polymerase. Nature of the assay: HIV PCR after inhibitor treatment of whole blood lysate. The format is biochemical. The conditions noted are these: Mode III, transferrin with sodium bicarbonate. The protocol: The enzyme was inactivated by heating (95°-100° C., 10 minutes).
Assay [12] relates to Taq polymerase. The assay is described as follows: PCR inhibition, SK38/39 system, 115-mer product on ethidium bromide gel or autoradiograph. The format is biochemical. The protocol: as §1
In other cases, amplification of HIV sequences was performed using primer pair SK-38 (SEQ ID NO:5) and SK-39 (SEQ ID NO:6) and 115-mer (SEQ ID NO:7) as target to produce a 115-mer product.
Where agarose gel electrophoresis was used, the PCR products were fractionated by electrophoresis through a 3% Nusieve/1% agarose gel in TBE buffer. Electrophoresis was typically carried out in a constant voltage of 8-10 V/cm. Following agarose gel electrophoresis, individual bands were, in most cases, visualized by ethidium bromide staining. This involved staining the agarose gel with 1 μg/ml ethidium bromide in TBE for 30 minutes followed by destaining the agarose gel with TBE for 30 minutes.
The chemical reaction was performed as follows. Two aliquots (30 mg/aliquot) of sodium borohydride (NaBH4) were added at ten minute intervals to 1 ml of 200 μM hematin (Sigma) in 1M Tris (pH 8.0) under argon in the dark. The pH was adjusted to 6.0 between additions. At the end of the reaction (20 minutes) the pH was adjusted to 1.0 and then neutralized to pH 7.0. Six aliquots (5 μl) of the product of the reaction corresponding to different amounts of reacted hematin (37.5 μM, 7.5 μM, 1.5 μM, 0.3 μM, 0.06 μM, 0.012 μM) were added to standard (20 μl) PCR reactions in different tubes using the SK38/39 system (see above). Three standard control reactions were run in separate tubes: i) a no nucleic acid target control; ii) a no primer control; and iii) a positive control (no hematin). In addition, unreacted hematin was added to four different tubes in different amounts (50 μM, 5 μM, 0.5 μM, and 0.05 μM). PCR was carried out for 30 cycles. The PCR products were thereafter electrophoresed (agarose) and visualized with ethidium bromide staining (FIG. 2A, lanes 1-13). The three above-named control reactions were electrophoresed in lanes 1, 2 and 3, respectively. […] The unreacted hematin tubes (lanes 4-7) show no product until hematin is present at a very low concentration (0.05 μM, lane 7), at which point product is evident. […] Indeed, product is evident where 1.5 μM reacted hematin or less was present. […] A score (i.e., % maximum intensity of a positive control) was given to each band. An OD unit of 1.0 corresponds to 100% of maximum intensity. After examination of a plot of the estimated OD units to the concentration of hematin (expressed in the log scale) in these PCR reactions, it is clear that approximately a thirty-fold concentration difference was achieved (reacted to unreacted).
The photochemical reaction was performed as follows. Stock biliverdin (Sigma, 5 mM) was diluted in solution (50 mM Tris pH 7.8) to a final concentration of 200 μM. Two aliquots (300 μl) were then made. One aliquot was left unreacted. The other aliquot was exposed to ultraviolet radiation from an HRI-100 for 16 hours using the industry standard, F8T5BL hot cathode dual bipin lamps. Thereafter, both the unirradiated and irradiated materials were added (5 μl) to standard (20 μl) PCR reactions in different tubes using the SK38/39 system (see above) and 10^9 copies of 115-mer target. Three standard control reactions were run in separate tubes: i) a no nucleic acid target control; ii) a positive control (no biliverdin); and iii) a no Taq control. PCR was carried out for thirty (30) cycles. The PCR products were thereafter electrophoresed (agarose) and visualized with ethidium bromide staining (FIG. 3A, lanes 1-5). […]

pIC50: −log10 of the molar value. Read-outs that look alike come from different tables or passages of the source. Where only a bound is given, the exact number is not on record here.

As for hemin, the “concentration that does not affect DNA ligase activity or DNA substrate integrity” value with DNA ligase was not above 4 µM. Also, the pIC50 on DNA ligase (pre-incubation, depending on the source of the DNA ligase, read-out: half-maximal inhibition of DNA ligase) was 4.00 to 4.60. In addition, the “inhibition of PCR / Taq polymerase” value with Taq polymerase [1] was “inhibit”. Besides, the “inhibition of reverse transcriptase from myeloblastosis virus” value in [2] is listed as “does not inhibit”. For the same substance, the “reversibility of inhibition of DNA ligase” value in assay [3] is listed as “not reversible”. For the same substance, in [4], the “complete inhibition of the formation of DNA-enzyme complex” value is not below 12 µM; the “mode of inhibition of DNA synthesis” value was “competitive with respect to template and noncompetitive with respect to substrate”. In assay [5], the “concentration up to which E. coli DNA ligase was not inhibited” value is listed as “up to 150 μM”. For the same substance, the “reversibility of inhibition of T4 DNA ligase” value in the assay on T4 DNA ligase is “not reversible”. Besides, the “reversibility of inhibition of MuLV RTase” value in assay [6] is on record as “reversible inhibitor”.
In the case of “transferrin: blood serum component, an iron transport protein”, the “aliquot of boiled whole blood supernatant up to which signal was provided” value in the assay on Taq polymerase [7] was not above 3 µL. In assay [8], the “capacity to take up iron atoms” value is given as 2 iron atoms per molecule. For the same substance, the PCR product entry was “No product is visible” in the assay on Taq polymerase [9] (10 μg per 20 μl PCR rxn, with cofactor); “faint product band” in the assay with Taq polymerase [9] (25 μg per 20 μl PCR rxn, with cofactor); “No product is visible” with Taq polymerase [9] (50 μg transferrin alone); “Strong product bands” in the assay with Taq polymerase [9] (50 μg transferrin with 10 mM cofactor); “not as apparent” in the assay with Taq polymerase [9] (higher concentration of the cofactor (20 mM sodium bicarbonate), lanes 11-18); “Strong product bands” in the assay with Taq polymerase [9] (higher concentrations (50 to 250 μg, lanes 3-8), with cofactor). Also, in assay [10], the “molar ratio of transferrin to heme at which transferrin is most effective in binding heme” value was less than 0.27. Moreover, the amplification specificity result in the assay with Taq polymerase [11] is “improves the specificity of the reaction”. The “PCR product in presence of protoporphyrin” value in the assay with Taq polymerase [12] was “product is visible”.

Values taken from patent publication US5654179A, “Nucleic acid preparation methods” (HRI Research, Inc., priority 1994, dated 1997).
